The values that follow come from patent US20050032743A1, “Compositions and method for steroid homeostasis” (priority 2002, published 2005).

“And” between values parts separate entries of the source, which are not always exact repeats. Equal values may be shown once.

For experiment [1], the system named is Vitamin D deficient Sprague Dawley rats. Briefly: Effect of calcium fructoborate on bone density in vitamin D deficient rats. In kind it is in vivo. On the procedure: Vitamin D deficient Sprague Dawley rats (21 days old) were divided into three groups and fed a regulated vitamin D deficient diet (0.47% Ca, 0.3% P) over a period of 9 weeks. The diet of the first group was supplemented with calcium fructoborate at 30 mcg/gm, the diet of the second group was supplemented with calcium fructoborate at 185 mcg/gm, and the diet of the third group was left unchanged as a control group. At the end of the test period animals of all three groups were evaluated for increase in vitamin D levels and increase in bone density.

The subject of experiment [2] is serum/plasma concentrations of testosterone, 25-hydroxy vitamin D, and dehydroepiandrosterone. Briefly: Effect of calcium fructoborate on selected steroids in healthy volunteers. As to conditions: for DHEA (dehydroepiandrosterone serum/plasma concentration) / TES (Testosterone serum/plasma concentration) / VITD (Vitamin D serum/plasma concentration): individual volunteer. In kind it is in vivo, human. On the procedure:
A group of healthy volunteers was given after obtaining their informed consent a daily oral dose of 6 mg Calcium fructoborate (as prepared in Example 1 above) for a period of 60 days, and the serum/plasma concentrations of testosterone, 25-hydroxy vitamin D, and dehydroepiandrosterone was determined in an independent clinical laboratory. Table 1 below summarizes the results in which TES refers to ng/ml Testosterone, DHEA refers to mcg/ml dehydroepiandrosterone, and VITD refers to ng/ml Vitamin D. The first number is the serum/plasma concentration at the beginning of the trial while the second number is the serum/plasma concentration after 60 days.

Where [3] appears, read: severely vitamin D deficient rats, 9 weeks.
The mark [4] stands for this setting: after 60 days of daily oral 6 mg (second number).
The mark [5] stands for this setting: at the beginning of the trial (first number).
The mark [6] stands for this setting: daily oral 6 mg, 60 days, four volunteers.

On to calcium fructoborate, for which, in experiment [1] (first test group, diet supplemented at 30 mcg/gm, 9 weeks), the “bone ash increase over the control” value amounted to 1.4%. Further, in experiment [1] (second test group, diet supplemented at 185 mcg/gm, 9 weeks), the “bone ash increase over the control” value came to 5.8%. Further, in experiment [1] (setting [3]), the “conservation or biosynthesis of vitamin D” value is reported as “did not conserve or promote biosynthesis of vitamin D”, the “growth of the animals” value is on record as “failed to promote growth of the animals” and the “raising the serum calcium concentration above the control” value is “failed”. Moreover, the bone density result in experiment [1] (under vitamin D deficiency conditions) was “increased the bone density”. In addition, in experiment [2] (setting [4]), the “DHEA (dehydroepiandrosterone serum/plasma concentration)” value is 2.1 mcg/ml (2×) and 4.1 mcg/ml and 2.95 mcg/ml; the “TES (Testosterone serum/plasma concentration)” value is 14.1 ng/mL and 8.2 ng/mL and 7.8 ng/mL and 8.0 ng/mL; the “VITD (Vitamin D serum/plasma concentration)” value is 9.9 ng/mL and 16.1 ng/mL and 15.8 ng/mL and 12.0 ng/mL. For the same substance, in experiment [2] (setting [5]), the “DHEA (dehydroepiandrosterone serum/plasma concentration)” value is 1.9 mcg/ml (2×) and 3.5 mcg/ml and 2.75 mcg/ml; the “TES (Testosterone serum/plasma concentration)” value was 11.9 ng/ml and 6.3 ng/ml and 6.2 ng/ml (2×); the “VITD (Vitamin D serum/plasma concentration)” value is 7.9 ng/mL and 12.1 ng/mL and 11.8 ng/mL and 9.3 ng/mL. For the same substance, the “serum/plasma concentration of various steroids” value in experiment [2] (daily oral 6 mg, 60 days) is recorded as “significantly increased”. Also, in experiment [2] (setting [6]), the “Average increase DHEA” value amounted to 11%, the “Average increase TES” value was determined as 25% and the “Average increase VITD” value is given as 28%.
